According to patent US12502369B2, “Methods of cancer treatment” (K-GEN, INC., priority 2015, dated 2025):
“Also recorded” adds a separate entry of the source.

Experiments:
[1] = tested on: PKC isoforms in A549 cells; test: Activation of PKC isoforms, Western blot, A549; assay type: cell-based; details: 30 minutes
Method: (§1) A549 lung cancer cells (˜3 million cells) were seeded in 10 cm tissue culture dishes and grown overnight. Cells were then treated with different drugs at indicated concentrations (see FIG. 9A for global activation of PKC and FIG. 10 for activation of PKC isoforms) for 30 minutes. Panc2.13 pancreatic cells (˜5 million) were seeded and treated as in FIG. 9B for global activation of PKC. Cell lysate preparation, protein quantitation, SDS-PAGE, and Western blotting procedures are described in Example 2. Primary antibodies used in this Example and later Examples of this application are shown in Table A. Western blot membranes were scanned using Odyssey® Imaging System (Licor Biosciences) if secondary antibodies Anti-mouse IgG Dylight 800 conjugate or Anti-rabbit IgG DyLight 680 conjugate (1:10000)(Cell signaling or similar IR 2nd antibodies from different vendors) were used. Alternatively, Imagequant LAS4000 (GE) was used to scan membranes if secondary antibodies Anti-mouse IgG HRP conjugate or Anti-rabbit IgG HRP conjugate (dilutions from 1:2000-1:10000) were used.

[2] = tested on: A549 cells; test: Soft agar colony formation assay; assay type: cell-based
Method: To prepare the base agar layer (0.6%), melted 1.2% agar solution was mixed 1:1 (v/v) with 2×DMEM/20% FBS medium in a tube by inverting several times and 50 μL of the mixture was immediately transferred to a well in a 96-well flat-bottom microplate. The plate was placed at 4° C. for 30 minutes to allow the base agar layer to solidify. Then, the cell agar layer (agar 0.4%) was prepared by transferring 75 μL of the cell and agar mixture containing 1:1:1 (v/v/v) of 1.2% agar solution, 2×DMEM/20% FBS and cell suspension (0.4-4×10^5/mL) to each well of the plates so that each well contained 1000-10000 cells per well. The plates were placed at 4° C. for 15 minutes and then 75 μL of media were added to each well. After incubating the plates overnight in a CO2 incubator, 50 μL of media with or without 5× final concentrations of compounds were added to each well. Each compound was tested in 9-point 3-fold dilution series. The plates were incubated for 7-10 days at 37° C. At the end of incubation period, 28 μL of Calcein AM solution (5 μM) was added to the center of each well. The plates were incubated at 37° C. for 45 minutes before scanning on Acumen (TTP Labtech). Each compound was tested in triplicates. Data was analyzed and compound EC50s were calculated using GraphPad Prism 5.

[3] = tested on: PKC substrates in A549 cells; test: Global PKC activation (phosphorylated PKC substrates), Western blot, A549; assay type: cell-based; details: 30 minutes, Phospho-PKC substrate Motif MultiMab
Method: as §1

[4] = literature reports; cited from earlier work
[5] = tested on: PKCδ; test: PKCδ Tyr311 phosphorylation in A549, HCT116, SW620, Panc02.13 cells, Western blot; assay type: cell-based; details: 30 minutes
Method: (§2) Non-cancerous lung fibroblast cell line HFL-1 or cancer cells (2-8 million cells) were seeded in 10 cm dishes and grown overnight so that the cells were about 40-80% confluent before treatment with the compound. Cells were then treated with different drugs at indicated concentrations (see descriptions for FIG. 11 and FIG. 12) for 30 minutes. Cell lysate preparation, protein quantitation, SDS-PAGE, and Western blotting procedures are described in Example 2 and 4. Primary antibodies used in this Example and later Examples of this application are shown in Table A. Secondary antibodies Anti-mouse IgG HRP conjugate or Anti-rabbit IgG HRP conjugate (dilutions from 1:2000-1:10000) were used. Western blot membranes were scanned using Imagequant LAS4000 (GE). The results are shown in FIG. 11A and FIG. 11B for HFL-1 cells and FIG. 11C and FIG. 12 for A549 cells.

[6] = tested on: K-Ras mutant pancreatic, lung, and colon cancer cell lines, leukemia cell lines; test: Proliferation assays, panel of cancer cell lines (summary statements); assay type: cell-based
Method: Briefly, cells at a density of 1,000-10,000 cells/well were seeded in 96-well plates and incubated at 37′C for 24 hours. A series of 9 different concentrations of compound stocks (500×) were created by 3-fold serial dilution in DMSO. These compounds were further diluted in culture media and then added to cells so that the final DMSO concentration was 0.2%. After 96 hours of incubation, 50 μL of CellTiter Glo reagent (Promega) was added to each well and luminescence was measured after 10 minutes using EnVision (PerkinElmer). […] The dose range for most compounds was 4.6 nM-30 μM. The dose ranges for some compounds were adjusted downward to 0.46 nM-3 μM or 0.08 nM-0.5 μM or 0.03 nM-0.2 μM. Luminescence from cells treated with […] alone was set as Max and % of inhibition was calculated as follows: Inhibition %=(Max-Sample value)/Max*100. Data was analyzed using XL-fit software (ID Business Solutions Ltd.) and EC50, relative EC50, and % of top inhibition were calculated. The results are shown in Tables 3-6 for pancreatic cancer, lung cancer, colon/gastric cancer, and leukemia cell lines.

[7] = tested on: PKCμ; test: PKCμ phosphorylation in A549, HCT116, SW620, Panc02.13 cells, Western blot; assay type: cell-based; details: 30 minutes
Method: as §2, with “(GE).” for “(GE). The results are shown in FIG. 11A and FIG. 11B for HFL-1 cells and FIG. 11C and FIG. 12 for A549 cells.”

[8] = tested on: PKC substrates in Panc2.13 cells; test: Global PKC activation (phosphorylated PKC substrates), Western blot, Panc2.13; assay type: cell-based; details: Phospho-(Ser) PKC Substrate Antibody
Method: as §1

[9] = tested on: PKC isoforms in Panc2.13 cells; test: Time course of activation of PKC isoforms in Panc2.13; assay type: cell-based; details: extended periods (16 h and 24 h), K102 0.1 μM, K103 0.01 μM versus K101A
Method: Cells of pancreatic cancer cell line Panc2.13 were seeded as described above, and the cell confluence was between 40-80% the next day. […] Phosphorylation at multiple PKC isoforms, such as Ser744/748 or Ser916 for PKCμ, phosphorylation at Thr638/641 for PKCα/β, phosphorylation at Ser660 for PKCβII (pan-PKC), phosphorylation at Ser643/676 for PKCδ/θ, and phosphorylation at Thr505 for PKCδ, were detected.

[10] = tested on: PKC isoforms and Erk1/2 in Mino and Namalwa cells; test: PKC inhibitor effect on K101A-mediated phosphorylation of PKCs and Erk1/2 in Mino and Namalwa cells; assay type: cell-based
Method: Cell lysis, protein quantitation, and Western blot analysis were performed as described above in Example 2 and 4. […] Again, these PKC inhibitor studies indicate the anti-proliferative effects of the PKC activators appear to be positively associated with phosphorylation and activation of novel PKC isoforms and PKCγ, and negatively associated with the phosphorylation of PKCδ at Tyr311.

[11] = tested on: Namalwa cells; test: Proliferation assay, PKC inhibitors in combination with PKC activators, Namalwa; assay type: cell-based; details: Sotrastaurin 0.3/1 μM, Go6983 0.1/1 μM, Go6976 0.3/1 μM, Enzastaurin at very high concentration of 10 μM
Method: PKC inhibitor studies were performed as described in Example 15. […] Thus, PKC activator-mediated anti-proliferation effects may be dependent on activation of novel PKC isoforms.

[12] = tested on: PKC isoforms and Erk1/2 in A549 cells; test: PKC inhibitor effect on PKC activator-mediated phosphorylation of PKCs and Erk1/2, A549; assay type: cell-based; details: 30 minutes
Method: To assay if PKC inhibitors have any effects on the PKC activator-mediated phosphorylation of PKCs, A549 cells were pre-treated with DMSO, PKC inhibitors Go6983 (0.3 μM or 1 μM) or Sotrastaurin (0.3 μM or 1 μM) for 30 minutes before adding PKC activators K101A (1 μM) or K102 (0.1 μM) for another 30 minutes (FIG. 22). Cell lysis, protein quantitation, and Western blot analysis were performed as described above in Example 2 and 4. […] Phosphorylation of PKCα/β at Thr638/641 was not affected by the inhibitors (FIG. 22A). […] These PKC inhibitor studies indicate that blocking phosphorylation and activation of various isoforms of PKC is correlated with inhibition of the anti-proliferative effects of the PKC activators.
Cell lysis, protein quantitation, and Western blot analysis were performed as described above in Example 2 and 4. […] These PKC inhibitor studies also indicate that phosphorylation and activation of novel PKC isoforms and PKCμ is required for the anti-proliferative effects of the PKC activators whereas phosphorylation of PKCδ at Tyr311 is correlated with inhibition of the anti-proliferative effects of PKC activators.

[13] = tested on: MiaPaCa-2; test: Proliferation assay, PKC inhibitor in combination with PKC activators, MiaPaCa-2; assay type: cell-based; details: Go6983 0.1 μM or 1 μM with K101A or K102
[14] = tested on: Mino cells; test: Proliferation assay, PKC inhibitors in combination with PKC activators, Mino; assay type: cell-based; details: Sotrastaurin 0.3/1 μM, Go6983 0.1/1 μM, Go6976 0.3/1 μM, Enzastaurin 1/3 μM
Method: PKC inhibitor studies were performed as described in Example 8, 9, and 10. […] Thus, PKC activator-mediated anti-proliferation effects may be dependent on activation of PKC isoforms from the novel PKC class.

[15] = tested on: A549; test: Proliferation assay, PKC inhibitor in combination with PKC activators, A549; assay type: cell-based; details: Go6983 0.1 μM or 1 μM with K101A or K102
Method: To assess if activation of different classes of PKC is required for anti-proliferation effect of PKC activators, Sotrastaurin, a PKC inhibitor targeting both conventional and novel classes of PKC, was tested in combination with PKC activators in the proliferation assays. Proliferation assay in lung cancer cell line A549 (FIG. 15) and in pancreatic cell line MiaPaCa-2 (FIG. 16) was performed as described in Example 1. […] Then, K101A or K102 was tested in 8- or 9-point titrations in the presence of DMSO or Sotrastaurin (0.1 μM or 1 μM). […] Thus, PKC activator-mediated anti-proliferation effects are dependent on activation of PKC isoforms from conventional, or novel, or both classes of PKCs.
To assess if PKC activation is required for anti-proliferation effect of PKC activators in cancer cell lines that are sensitive to these activators, a pan-PKC inhibitor Go6983, targeting classes of PKCs (conventional, novel, atypical, and PKCμ), was tested in combination with PKC activators in the proliferation assays. Proliferation assay in lung cancer cell line A549 (FIG. 17) and in pancreatic cell line MiaPaCa-2 (FIG. 18) was performed as described in Example 1. […] Then, K101A or K102 was tested in 8- or 9-point titrations in the presence of DMSO or Go6983 (0.1 μM or 1 μM). […] Thus, PKC activation is required for anti-proliferation effect of PKC activators.
Proliferation assay was performed as described in Example 1. […] Thus, PKC activator-mediated anti-proliferation effects appear mainly dependent on activation of novel PKC isoforms.

[16] = inhibitor pre-treatment 0.3 μM or 1 μM

CCCCCCCCCCCCCC(=O)O[C@@H]1[C@@H](C)[C@@]2(O)[C@@H](C=C(CO)C[C@]3(O)C(=O)C(C)=C[C@@H]23)[C@@H]2C(C)(C)[C@]12OC(C)=O [Compound K-103, 12-O-Tetradecanoylphorbol-13-acetate]
P-PKCδ (Thr505) and P-PKCδ/θ (Ser643/676) [1]: potently increased
P-PKC (pan)(βII Ser660) and P-PKCα/β (Thr638/641) ([1]; high levels already in DMSO treated cells): no further increases
number of colonies formed in soft agar ([2]; 7-10 days, 9-point dilution series): reduced the number of colonies
potency rank in soft agar assay ([2]; K103, followed by K102, K101A, and K101E): Most potent compound
phosphorylation of PKC substrates (global activation of PKC) [3]: potently elevated
tumor promotion [4]: tumor-promoting
PKCδ activation, phosphorylation at Tyr311 [5]: observed for PKC activator insensitive cell lines HCT116 and SW620 but not as significantly for sensitive cell lines A549 and Pan 02,13; also recorded: observed for cell lines HCT116 and SW620 but not as significantly for cell lines A549 and Panc02.13
potency in proliferation inhibition relative to prostratin [6]: more potent in proliferation inhibition
PKCμ activation, phosphorylation at Ser744/748 [7]: observed for all four cancer cell lines
PKCμ activation, phosphorylation at Ser916 [7]: observed primarily in cell lines A549 and Pan 02,13; also recorded: observed primarily in cell lines A549 and Panc02.13
phosphorylation of PKC substrates (global activation of PKC) [8]: potently elevated
reducing the phosphorylation at βII Ser660 of PKC (pan), to a lesser extent Thr638/641 of PKCα/β [9]: more potent

COc1ccc2c(c1)c(C1=C(c3c[nH]c4ccccc34)C(=O)NC1=O)cn2CCCN(C)C [Go6983]
phosphorylation of PKCδ at Tyr311 induced by PKC inhibitor ([10]; inhibitor pre-treatment 30 minutes): induced robust phosphorylation
K101A-induced phosphorylation of PKCμ at Ser916 or Ser744/748, PKCδ at Thr505, and Erk ([10]; inhibitor pre-treatment 30 minutes (Go6983, Sotrastaurin 1 μM)): completely abolished
effect on PKC activator-mediated anti-proliferation effects [11]: dose-dependently blocked
K101A- and K102-induced phosphorylation of Erk1/2 [12, 16]: blocked dose-dependently
K101A- or K102-induced phosphorylation, P-PKCμ (Ser916), P-PKCμ (Ser744/748), P-PKCδ (Thr505) [12, 16]: blocked in a dose-dependent manner
Phosphorylation of PKCα/β at Thr638/641 [12, 16]: not affected
K101A- or K102-induced phosphorylation of PKCμ at Ser916 or Ser744/748, PKCδ at Thr505, and Erk ([12]; inhibitor pre-treatment 1 μM): completely abolished
phosphorylation of PKCδ at Tyr311 induced by PKC inhibitor ([12]; inhibitor pre-treatment 1 μM): induced phosphorylation of PKCδ at Tyr311
effect on PKC activator-mediated anti-proliferation effects [13]: inhibited the PKC activator-mediated anti-proliferation effects in a dose-dependent manner
effect on PKC activator-mediated anti-proliferation effects [14]: dose-dependently blocked
effect on PKC activator-mediated anti-proliferation effects [15]: inhibited the PKC activator-mediated anti-proliferation effects in a dose-dependent manner
